Measured values reported in patent US11834463B2, “High affinity macrocyclic FKB51-inhibitors for treatment of psychiatric disorders” (priority 2020, dated 2023).
Where two headings read alike, the source gives them in different places.

How the values were obtained:
[1] = biological target: FKBP12.6 (Homo sapiens, UniProt P68106); assay: competitive fluorescence polarization assay, binding to FKBP12.6
Description: (§1) All macrocyclic compounds were tested in a competitive fluorescence polarization assay for binding towards FKBP51 as well as the homologs FKBP12, FKBP12.6 and FKBP52 (Table 1).
(§2) Example 8: […] of the Macrocyclic FKBP51 Ligands by SPPS

[2] = biological target: T1, FKBP51FK1 (Homo sapiens, UniProt Q13451); assay: biochemical
T1 sequence (Q13451 42-130 limits assumed): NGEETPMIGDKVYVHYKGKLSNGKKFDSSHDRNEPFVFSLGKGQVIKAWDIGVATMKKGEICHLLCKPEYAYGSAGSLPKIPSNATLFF
Description: as §1, §2

[3] = biological target: FKBP12 (Homo sapiens, UniProt P62942); assay: competitive fluorescence polarization assay, binding to FKBP12
FKBP12, sequence (P62942 whole entry): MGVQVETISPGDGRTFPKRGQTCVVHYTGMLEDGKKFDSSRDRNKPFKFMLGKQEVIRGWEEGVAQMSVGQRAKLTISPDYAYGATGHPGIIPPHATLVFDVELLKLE
Description: as §1, §2

[4] = affinity, same values as Table 2 FKBP51FK1
[5] = Table 1, competitive Fluorescence Polarization Assay, read-out: Ki [nM] FKBP12.6
[6] = Ki [nM] FKBP51FK1, Table 1, competitive Fluorescence Polarization Assay
[7] = Table 1, competitive Fluorescence Polarization Assay, read-out: Ki [nM] FKBP12

FKBP12.6, sequence (P68106 whole entry): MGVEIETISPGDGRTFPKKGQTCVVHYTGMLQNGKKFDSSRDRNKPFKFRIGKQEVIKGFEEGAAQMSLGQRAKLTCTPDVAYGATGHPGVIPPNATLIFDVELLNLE

Structure (SMILES)	Ki [1, 5]	Ki [2, 6]	Ki [3, 7]	further results
COc1ccc(CC[C@H]2OC(=O)[C@@H]3CCCCN3C(=O)[C@@H](C3CCCCC3)NC(=O)[C@@H]3CCC[C@H]3NC(=O)COc3cccc2c3)cc1OC [Compound 94, (2R,5S,12R,15R,19R)-12-cyclohexyl-2-[2-(3,4-dimethoxyphenyl)ethyl]-3,23-dioxa-10,13,20-triazatetracyclo[22.3.1.0^5,10.0^15,19]octacosa-1(28),24,26-triene-4,11,14,21-tetrone]				Ki ([1]; Table 2, read-out: FKBP12.6 Ki): > 80000 nM; Ki [2, 4]: 1800 nM; Ki ([3]; Table 2, read-out: FKBP12 Ki): > 80000 nM
COc1ccc(CC[C@H]2OC(=O)[C@@H]3CCCCN3C(=O)[C@@H](C3CCCCC3)NC(=O)[C@H]3CCCN3C(=O)COc3cccc2c3)cc1OC [Compound 90, (9R,12R,19S,22R)-12-cyclohexyl-22-[2-(3,4-dimethoxyphenyl)ethyl]-2,21-dioxa-5,11,14-triazatetracyclo[21.3.1.0^5,9.0^14,19]heptacosa-1(26),23(27),24-triene-4,10,13,20-tetrone]				Ki ([1]; Table 2, read-out: FKBP12.6 Ki): > 80000 nM; Ki ([3]; Table 2, read-out: FKBP12 Ki): > 80000 nM
COc1ccc(CC[C@H]2OC(=O)[C@@H]3CCCCN3C(=O)[C@@H](C3CCCCC3)c3cc(OC)c(c(OC)c3)OC/C=C/COc3cccc2c3)cc1OC [31-(E)]	263 nM	56 nM	289 nM	
COc1ccc(CC[C@H]2OC(=O)[C@@H]3CCCCN3C(=O)[C@@H](C3CCCCC3)NC(=O)C3(CC3)NC(=O)COc3cccc2c3)cc1OC [Compound 86, (2′R,5′S,12′R)-12′-cyclohexyl-2′-[2-(3,4-dimethoxyphenyl)ethyl]-3′,19′-dioxa-10′,13′,16′-triazaspiro[cyclopropane-1,15′-tricyclo[18.3.1.0^5,10]tetracosane]-1′(24′),20′,22′-triene-4′,11′,14′,17′-tetrone]				Ki ([1]; Table 2, read-out: FKBP12.6 Ki): > 80000 nM; Ki ([3]; Table 2, read-out: FKBP12 Ki): > 80000 nM
COc1ccc(CC[C@H]2OC(=O)[C@@H]3CCCCN3C(=O)[C@@H](C3CCCCC3)NC(=O)C(C)(C)NC(=O)COc3cccc2c3)cc1OC [Compound 85, (2R,5S,12R)-12-cyclohexyl-2-[2-(3,4-dimethoxyphenyl)ethyl]-15,15-dimethyl-3,19-dioxa-10,13,16-triazatricyclo[18.3.1.0^5,10]tetracosa-1(24),20,22-triene-4,11,14,17-tetrone]				Ki ([1]; Table 2, read-out: FKBP12.6 Ki): > 80000 nM; Ki [2, 4]: 290 nM; Ki ([3]; Table 2, read-out: FKBP12 Ki): > 80000 nM
COc1ccc(CC[C@H]2OC(=O)[C@@H]3CCCCN3C(=O)[C@@H](C3CCCCC3)NC(=O)[C@@H](C)NC(=O)COc3cccc2c3)cc1OC [Compound 84, (2R,5S,12R,15R)-12-cyclohexyl-2-[2-(3,4-dimethoxyphenyl)ethyl]-15-methyl-3,19-dioxa-10,13,16-triazatricyclo[18.3.1.0^5,10]tetracosa-1(24),20,22-triene-4,11,14,17-tetrone]				Ki ([1]; Table 2, read-out: FKBP12.6 Ki): > 80000 nM; Ki ([3]; Table 2, read-out: FKBP12 Ki): > 80000 nM
COc1ccc(CC[C@H]2OC(=O)[C@@H]3CCCCN3C(=O)[C@@H](C3CCCCC3)c3cc(OC)c(OC)c(c3)OCCOC/C=C\COc3cccc2c3)cc1OC [37-(Z)]	190 nM	113 nM	270 nM	
COc1ccc(CC[C@H]2OC(=O)[C@@H]3CCCCN3C(=O)[C@@H](C3CCCCC3)c3cc(OC)c(c(OC)c3)OCCOC/C=C\COc3cccc2c3)cc1OC [33-(Z)]	186 nM		309 nM	
COc1ccc(CC[C@H]2OC(=O)[C@@H]3CCCCN3C(=O)[C@@H](C3CCCCC3)c3cc(OC)c(OC)c(c3)OCCOCC(=O)CCOc3cccc2c3)cc1OC [Compound 62]	57 nM	23 nM	39 nM	
COc1ccc(CC[C@H]2OC(=O)[C@@H]3CCCCN3C(=O)[C@@H](C3CCCCC3)NC(=O)CNC(=O)COc3cccc2c3)cc1OC [Compound 83, (2R,5S,12R)-12-cyclohexyl-2-[2-(3,4-dimethoxyphenyl)ethyl]-3,19-dioxa-10,13,16-triazatricyclo[18.3.1.0^5,10]tetracosa-1(24),20,22-triene-4,11,14,17-tetrone]				Ki ([1]; Table 2, read-out: FKBP12.6 Ki): > 80000 nM; Ki [2, 4]: 2300 nM; Ki ([3]; Table 2, read-out: FKBP12 Ki): > 80000 nM
COc1ccc(CC[C@H]2OC(=O)[C@@H]3CCCCN3C(=O)[C@@H](C3CCCCC3)c3cc(OC)c(OC)c(c3)OCCCC(=O)COc3cccc2c3)cc1OC [Compound 61b]	37 nM	28 nM	58 nM	
COc1ccc(CC[C@H]2OC(=O)[C@@H]3CCCCN3C(=O)[C@@H](C3CCCCC3)c3cc(OC)c(OC)c(c3)OCCC(=O)CCOc3cccc2c3)cc1OC [Compound 61a]	22 nM	8 nM	38 nM	
COc1ccc(CC[C@H]2OC(=O)[C@@H]3CCCCN3C(=O)[C@@H](C3CCCCC3)c3cc(OC)c(OC)c(c3)OCCOCCCCOc3cccc2c3)cc1OC [Compound 45]	84 nM	48 nM	123 nM	
COc1ccc(CC[C@H]2OC(=O)[C@@H]3CCCCN3C(=O)[C@@H](C3CCCCC3)c3cc(OC)c(c(OC)c3)OCC(O)C(O)COc3cccc2c3)cc1OC (mixture of isomers) [Compound 63]	83 nM	11 nM	97 nM	
COc1ccc(CC[C@H]2OC(=O)[C@@H]3CCCCN3C(=O)[C@@H](C3CCCCC3)c3cc(OC)c(c(OC)c3)OCC/C=C\COc3cccc2c3)cc1OC [32-(Z)]	237 nM	80 nM	189 nM	
COc1ccc(CC[C@H]2OC(=O)[C@@H]3CCCCN3C(=O)[C@@H](C3CCCCC3)NC(=O)C3(CCCC3)NC(=O)COc3cccc2c3)cc1OC [Compound 88, (2′R,5'S,12′R)-12′-cyclohexyl-2′-[2-(3,4-dimethoxyphenyl)ethyl]-3′, 19′-dioxa-10′, 13′, 16′-triazaspiro[cyclopentane-1,15′-tricyclo[18.3.1.0^5,10]tetracosane]-1′(24′),20′, 22′-triene-4′, 11′, 14′, 17′-tetrone]				Ki ([1]; Table 2, read-out: FKBP12.6 Ki): > 80000 nM; Ki [2, 4]: 1300 nM; Ki ([3]; Table 2, read-out: FKBP12 Ki): > 80000 nM
COc1ccc(CC[C@H]2OC(=O)[C@@H]3CCCCN3C(=O)[C@@H](C3CCCCC3)c3cc(OC)c(OC)c(c3)OCCCOC/C=C/COc3cccc2c3)cc1OC [38-(E)]	144 nM	93 nM	269 nM	
COc1ccc(CCC2OC(=O)C3CCCCN3C(=O)C(C3CCCCC3)c3cc(OC)c(OC)c(c3)OC/C=C/COc3cccc2c3)cc1OC (stereo not shown) [35-(E)]				Ki ([1]; Table 1, unit μM printed in the cell, read-out: Ki FKBP12.6): > 100000 nM; Ki ([2]; Ki FKBP51FK1, Table 1, unit μM printed in the cell): > 5000 nM; Ki ([3]; Table 1, unit μM printed in the cell, read-out: Ki FKBP12): > 100000 nM
COc1cccc([C@@H](CCc2ccc(OC)c(OC)c2)OC(=O)[C@@H]2CCCCN2C(=O)[C@H](c2cc(OC)c(OC)c(OC)c2)C2CCCCC2)c1 [Compound A1, reference compound]	199 nM	94 nM	222 nM	
COc1ccc(CC[C@H]2OC(=O)[C@@H]3CCCCN3C(=O)[C@@H](C3CCCCC3)c3cc(OC)c(c(OC)c3)OCCOc3cccc2c3)cc1OC [Compound 55]	190 nM	64 nM	412 nM	
COc1ccc(CC[C@H]2OC(=O)[C@@H]3CCCCN3C(=O)[C@@H](C3CCCCC3)c3cc(OC)c(c(OC)c3)OCCCOc3cccc2c3)cc1OC [Compound 56]	211 nM	67 nM	384 nM	
COc1ccc(CC[C@H]2OC(=O)[C@@H]3CCCCN3C(=O)[C@@H](C3CCCCC3)c3cc(OC)c(OC)c(c3)OCC/C=C\COc3cccc2c3)cc1OC [36-(Z)]	96 nM	77 nM	118 nM	
COc1ccc(CC[C@H]2OC(=O)[C@@H]3CCCCN3C(=O)[C@@H](C3CCCCC3)c3cc(OC)c(OC)c(c3)OCCCOc3cccc2c3)cc1OC [Compound 58]	87 nM	54 nM	401 nM	
COc1ccc(CC[C@H]2OC(=O)[C@@H]3CCCCN3C(=O)[C@@H](C3CCCCC3)CC(O)C(O)COCCOc3cccc2c3)cc1OC (stereo partly drawn) [Compound 82, (2R,5S,12R)-12-cyclohexyl-2-[2-(3,4-dimethoxyphenyl)ethyl]-14,15-dihydroxy-3,17,20-trioxa-10-azatricyclo[19.3.1.0^5,10]pentacosa-1(25),21,23-triene-4,11-dione]				binding to FKBP12.6 (in words) [1]: did not bind; Ki ([2]; Ki, bound to FKBP51, text b114): 1200 nM; binding to FKBP12 (in words) [3]: did not bind
COc1ccc(CC[C@H]2OC(=O)[C@@H]3CCCCN3C(=O)[C@@H](C3CCCCC3)NC(=O)CCCNC(=O)COc3cccc2c3)cc1OC [Compound 95, (2R,5S,12R)-12-cyclohexyl-2-[2-(3,4-dimethoxyphenyl)ethyl]-3,21-dioxa-10,13,18-triazatricyclo[20.3.1.0^5,10]hexacosa-1(26),22,24-triene-4,11,14,19-tetrone]				affinity (in words) [2]: no binding
COc1ccc(CC[C@H]2OC(=O)[C@@H]3CCCCN3C(=O)[C@@H](C3CCCCC3)c3cc(OC)c(OC)c(c3)OCCCCOc3cccc2c3)cc1OC [Compound 43]	62 nM	30 nM	92 nM	
COc1ccc(CC[C@H]2OC(=O)[C@@H]3CCCCN3C(=O)[C@@H](C3CCCCC3)c3cc(OC)c(c(OC)c3)OCCOC/C=C/COc3cccc2c3)cc1OC [33-(E)]	361 nM		534 nM	
COc1cc2cc(c1)[C@@H](CCc1ccc(OC)c(OC)c1)OC(=O)[C@@H]1CCCCN1C(=O)[C@@H](C1CCCCC1)NC(=O)C(C)(C)NC(=O)CO2 [Compound 104, (2R,5S,12R)-12-cyclohexyl-2-[2-(3,4-dimethoxyphenyl)ethyl]-22-methoxy-15,15-dimethyl-3,19-dioxa-10,13,16-triazatricyclo[18.3.1.0^5,10]tetracosa-1(24),20,22-triene-4,11,14,17-tetrone]				affinity (in words) [2]: bound similarly to the glycine derivative 83; Ki ([2]; FKBP51FK1 Ki [μM], Table 2, [a] standard error from three, [c] error from two independent measurements): 390 nM
